From patent US20250388593A1 (MITSUBISHI TANABE PHARMA CORPORATION, priority 2023, published 2025)

The compounds below were run against CRBN truncate (318-426) (Homo sapiens (Human), UniProt Q96SW2) (assay: Measurement of molecular interactions using surface plasmon resonance (SPR), Biacore T200). Conditions: 25° C., immobilized CRBN truncate, upper limit of measurement 200 μM.
Assay type: binding
Protocol: The instrument used was the Biacore T200 (manufactured by Cytiva). The CRBN truncate (318-426) was obtained by expressing a construct with an Avi-tag added at the C-terminus. The sensor chip used was Sensor Chip SA (manufactured by Cytiva). The CRBN truncate was immobilized using the affinity between SA (streptavidin) on the sensor chip and the Avi-tag. The running buffer was a mixture of 10 mM HEPES pH 7.5, 150 mM NaCl, 1 mM TCEP, 0.005% Tween 20, and 2% DMSO. […] Contact time and dissociation time were set at 60 seconds and 120 seconds, respectively.

Chain of CRBN truncate (318-426) (Q96SW2 318-426): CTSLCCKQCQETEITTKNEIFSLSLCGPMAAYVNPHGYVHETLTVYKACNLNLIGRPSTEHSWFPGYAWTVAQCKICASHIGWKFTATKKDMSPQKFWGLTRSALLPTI

Kd	Compound
< 50 µM	Cc1sc2c(c1C)C(c1ccc(Cl)cc1)=N[C@@H](CC(=O)NCCCCCCc1ccc(C(=O)N3CCN(C4CCCC(=O)NC4=O)C(=O)C3)cc1Cl)c1nnc(C)n1-2 (stereo partly drawn) [Example 327, N-[6-[2-chloro-4-[4-(2,7-dioxoazepan-3-yl)-3-oxopiperazine-1-carbonyl]phenyl]hexyl]-2-[(9S)-7-(4-chlorophenyl)-4,5,13-trimethyl-3-thia-1,8,11,12-tetraazatricyclo[8.3.0.02,6]trideca-2(6),4,7,10,12-pentaen-9-yl]acetamide]
< 50 µM	Cc1sc2c(c1C)C(c1ccc(Cl)cc1)=N[C@@H](CC(=O)NCCCCCCCCNC(=O)CCc1ccc3c(N4CCCC(=O)NC4=O)nn(C)c3c1)c1nnc(C)n1-2 [Example 346, N-[8-[[2-[(9S)-7-(4-chlorophenyl)-4,5,13-trimethyl-3-thia-1,8,11,12-tetraazatricyclo[8.3.0.02,6]trideca-2(6),4,7,10,12-pentaen-9-yl]acetyl]amino]octyl]-3-[3-(2,4-dioxo-1,3-diazepan-1-yl)-1-methyl-indazol-6-yl]propanamide]
≥ 100 µM	O=C1CCCC(Oc2ccccc2[N+](=O)[O-])C(=O)N1 (centres unmarked) [Example 66-1, 3-(2-Nitrophenoxy) azepane-2,7-dione]
50 to 100 µM	Cn1c(=O)n(C2CCCC(=O)NC2=O)c2cccc(-c3ccncc3)c21 (centres unmarked) [Example 221, 3-[3-Methyl-2-oxo-4-(4-pyridyl)benzimidazol-1-yl]azepane-2,7-dione]
50 to 100 µM	O=C1CCCC(n2nc(-c3ccccc3)ccc2=O)C(=O)N1 (centres unmarked) [Example 246, 3-(6-Oxo-3-phenylpyridazin-1-yl) azepane-2,7-dione]
≥ 100 µM	COC(=O)c1cccc(CN2CCC3(CCCC(=O)NC3=O)C2)c1 (centres unmarked) [Example 33, Methyl 3-[(6,8-dioxo-2,7-diazaspiro[4.6]undecan-2-yl)methyl]benzoate]
< 50 µM	CC(C)(C)OC(=O)NCCCCCCCCn1ccc2c(N3CC4(CC(=O)N(C5CCC(=O)NC5=O)C4=O)C3)ncnc21 (centres unmarked) [Example 236, tert-Butyl N-[8-[4-[6-(2,6-dioxopiperidin-3-yl)-5,7-dioxo-2,6-diazaspiro[3.4]octan-2-yl]pyrrolo[2,3-d]pyrimidin-7-yl]octyl]carbamate]
≥ 100 µM	O=C1CCCC2(CCN(C(=O)C3CCN(c4ncccn4)CC3)C2)C(=O)N1 (centres unmarked) [Example 269, 2-(1-Pyrimidin-2-ylpiperidine-4-carbonyl)-2,7-diazaspiro [4.6]undecane-6,8-dione]
< 50 µM	O=C1CCCN(c2nc3ccc([N+](=O)[O-])cc3s2)C(=O)N1 [Example 116, 1-(6-Nitro-1,3-benzothiazol-2-yl)-1,3-diazepane-2,4-dione]
≥ 100 µM	CN(C1CCCC(=O)NC1=O)S(=O)(=O)c1cccc(Cl)c1 (centres unmarked) [Example 10, 3-Chloro-N-(2,7-dioxoazepan-3-yl)-N-methylbenzenesulfonamide]
50 to 100 µM	Cn1c(=O)n(C2CCCC(=O)NC2=O)c2ccc(Br)cc21 (centres unmarked) [Example 139, 3-(5-Bromo-3-methyl-2-oxobenzimidazol-1-yl) azepane-2,7-dione]
< 50 µM	Cc1sc2c(c1C)C(c1ccc(Cl)cc1)=N[C@@H](CC(=O)NCCCCCCc1ccc(S(=O)(=O)N(C)C3CCCC(=O)NC3=O)cc1)c1nnc(C)n1-2 (stereo partly drawn) [Example 311, 2-[(9S)-7-(4-chlorophenyl)-4,5,13-trimethyl-3-thia-1,8,11,12-tetraazatricyclo[8.3.0.02,6]trideca-2(6),4,7,10,12-pentaen-9-yl]-N-[6-[4-[(2,7-dioxoazepan-3-yl)-methylsulfamoyl]phenyl]hexyl]acetamide]
≥ 100 µM	Nc1ccc(C(=O)N2CCC3(CCCC(=O)NC3=O)C2)cc1 (centres unmarked) [Example 155, 2-(4-Aminobenzoyl)-2,7-diazaspiro[4.6]undecane-6,8-dione]
< 50 µM	CCOC(=O)c1ccc2nc(N3CC4(CC(=O)N(C5CCC(=O)NC5=O)C4=O)C3)sc2c1 (centres unmarked) [Example 52, Ethyl 2-[6-(2,6-dioxopiperidin-3-yl)-5,7-dioxo-2,6-diazaspiro[3.4]octan-2-yl]-1,3-benzothiazole-6-carboxylate]
≥ 100 µM	O=C1CCOC(c2cccc(Br)c2)C(=O)N1 (centres unmarked) [Example 19, 2-(3-Bromophenyl)-1,4-oxazepane-3,5-dione]
50 to 100 µM	CC(C)(C)OC(=O)NCCCCCCc1ccc(C(=O)N2CCC3(CCCC(=O)NC3=O)C2)cc1Cl (centres unmarked) [Example 160, tert-Butyl N-[6-[2-chloro-4-(6,8-dioxo-2,7-diazaspiro[4.6]undecane-2-carbonyl)phenyl]hexyl]carbamate]
≥ 100 µM	CC(C)(C)OC(=O)Nc1ccccc1-c1cn(C2CCCC(=O)NC2=O)nn1 (centres unmarked) [Example 6, tert-Butyl N-[2-[1-(2,7-dioxoazepan-3-yl)triazol-4-yl]phenyl]carbamate]
< 50 µM	COc1ccc2nc(N3CC4(CC(=O)N(C5CCC(=O)NC5=O)C4=O)C3)sc2c1 (centres unmarked) [Example 238, 6-(2,6-Dioxopiperidin-3-yl)-2-(6-methoxy-1,3-benzothiazol-2-yl)-2,6-diazaspiro[3.4]octane-5,7-dione]

Kd	Compound
< 50 µM	Cc1sc2c(c1C)C(c1ccc(Cl)cc1)=N[C@@H](CC(=O)NCCCNc1nccc(N3CC4(CC(=O)N(C5CCC(=O)NC5=O)C4=O)C3)n1)c1nnc(C)n1-2 (stereo partly drawn) [Example 315, 2-[(9S)-7-(4-chlorophenyl)-4,5,13-trimethyl-3-thia-1,8,11,12-tetraazatricyclo[8.3.0.02,6]trideca-2(6),4,7,10,12-pentaen-9-yl]-N-[3-[[4-[6-(2,6-dioxopiperidin-3-yl)-5,7-dioxo-2,6-diazaspiro[3.4]octan-2-yl]pyrimidin-2-yl]amino]propyl]acetamide]
< 50 µM	Cc1sc2c(c1C)C(c1ccc(Cl)cc1)=N[C@@H](CC(=O)NCCCCCCCCNC(=O)c1cc3c(N4CCC5(CCCC(=O)NC5=O)C4)ncnc3n1C)c1nnc(C)n1-2 (stereo partly drawn) [Example 328, N-[8-[[2-[(9S)-7-(4-Chlorophenyl)-4,5,13-trimethyl-3-thia-1,8,11,12-tetraazatricyclo[8.3.0.02,6]trideca-2(6),4,7,10,12-pentaen-9-yl]acetyl]amino]octyl]-4-(6,8-dioxo-2,7-diazaspiro[4.6]undecan-2-yl)-7-methylpyrrolo[2,3-d]pyrimidine-6-carboxamide]
≥ 100 µM	O=C1CCCC(n2nnc3ccccc32)C(=O)N1 (centres unmarked) [Example 250, 3-(Benzotriazol-1-yl)azepine 2,7-dione]
≥ 100 µM	O=C1CCCC(n2c(=O)ccc3cc(Br)ccc32)C(=O)N1 (centres unmarked) [Example 257, 3-(6-Bromo-2-oxoquinolin-1-yl)azepane-2,7-dione]
≥ 100 µM	O=C1CCCC2(CCN(C(=O)c3cnn4ccccc34)C2)C(=O)N1 (centres unmarked) [Example 153, 2-(Pyrazolo[1,5-a]pyridine-3-carbonyl)-2,7-diazaspiro[4.6]undecane-6,8-dione]
≥ 100 µM	O=C1NC(=O)[C@@]2(c3ccc(Br)cc3)CC[C@@H]1O2 (racemic) [Example 173, 1-(4-Bromophenyl)-8-oxa-3-azabicyclo [3.2.1]octane-2,4-dione]
< 50 µM	CC(C)(C)OC(=O)c1ccc(N2CCC3(CCCC(=O)NC3=O)C2)cc1 (centres unmarked) [Example 128, tert-Butyl 4-(6,8-dioxo-2,7-diazaspiro [4.6]undecan-2-yl) benzoate]
≥ 100 µM	CC(C)(C)OC(=O)c1cccc(N2CCC3(CCCC(=O)NC3=O)CC2=O)c1 (centres unmarked) [Example 110, tert-Butyl 3-(4,7,9-trioxo-3,8-diazaspiro [5.6]dodecan-3-yl) benzoate]
≥ 100 µM	O=C1CCCC(C(=O)Nc2ccc(F)cc2)C(=O)N1 (centres unmarked) [Example 28, N-(4-Fluorophenyl)-2,7-dioxoazepane-3-carboxamide]
≥ 100 µM	CC(C)(C)OC(=O)COc1cnc(N2CC3(CC(=O)N(C4CCC(=O)NC4=O)C3=O)C2)nc1 (centres unmarked) [Example 234]
50 to 100 µM	Cn1c(C(=O)OC(C)(C)C)cc2c(N3CCC4(CCCC(=O)NC4=O)C3)ncnc21 (centres unmarked) [Example 180, tert-Butyl 4-(6,8-dioxo-2,7-diazaspiro[4.6]undecan-2-yl)-7-methylpyrrolo[2,3-d]pyrimidine-6-carboxylate]
≥ 100 µM	CN1CCN(c2cnn(C3CCCC(=O)NC3=O)c(=O)c2)CC1 (centres unmarked) [Example 272, 3-[4-(4-Methylpiperazin-1-yl)-6-oxopyridazin-1-yl]azepane-2,7-dione]
50 to 100 µM	COC(=O)c1cc2ncnc(N3CCC4(CCCC(=O)NC4=O)C3)c2s1 (centres unmarked) [Example 43, Methyl 4-(6,8-dioxo-2,7-diazaspiro[4.6]undecan-2-yl)thieno[3,2-d]pyrimidine-6-carboxylate]
< 50 µM	C[C@@H]1Cc2c([nH]c3ccccc23)[C@@H](c2cnc(N3CCC(CN(C)CCCCCCCc4cccc5c4n(C)c(=O)n5C4CCCC(=O)NC4=O)CC3)nc2)N1CC(C)(C)F (stereo partly drawn) [Example 360-3, 3-[4-[7-[[1-[5-[(1R,3R)-2-(2-fluoro-2-methyl-propyl)-3-methyl-1,3,4,9-tetrahydropyrido[3,4-b]indol-1-yl]pyrimidin-2-yl]-4-piperidyl]methyl-methyl-amino]heptyl]-3-methyl-2-oxo-benzimidazol-1-yl]azepane-2,7-dione]
≥ 100 µM	Cn1c(-c2ccc(CCC(=O)OC(C)(C)C)cc2)nn(C2CCCC(=O)NC2=O)c1=O (centres unmarked) [Example 266, tert-Butyl 3-[4-[1-(2,7-dioxoazepan-3-yl)-4-methyl-5-oxo-1,2,4-triazol-3-yl]phenyl]propanoate]
≥ 100 µM	CC(C)(C)OC(=O)c1ccc(OC2CCCC(=O)NC2=O)nc1 (centres unmarked) [Example 268, tert-Butyl 6-(2,7-dioxoazepan-3-yl) oxypyridine-3-carboxylate]
50 to 100 µM	CC(C)(C)OC(=O)c1ccc(N2CC3(CC(=O)N(C4CCC(=O)NC4=O)C3=O)C2)nc1 (centres unmarked) [Example 45, tert-Butyl 6-[6-(2,6-dioxopiperidin-3-yl)-5,7-dioxo-2,6-diazaspiro [3.4]octan-2-yl]pyridine-3-carboxylate]
